{"source": "patent US20250382631A1", "about": "“PROTAC-CID SYSTEMS FOR USE IN MULTIPLEX GENE REGULATION” (William Marsh Rice University, priority 2022, published 2025)", "key": {"[1]": {"test_system": "pUAS-1-driven EYFP expression in HEK293T cells transfected with GAL4- and VPR-fused PROTAC target protein / E3 ubiquitin ligase", "assay": "PROTAC-CID inducible EYFP gene activation, flow cytometry", "assay_type": "cell-based, human", "details": "for Bottom (best-fit value) / Span (best-fit value) / Top (best-fit value): Table 4 nonlinear regression of EYFP activation; for Bottom (best-fit value) / Span (best-fit value) / Top (best-fit value) / Hillslope (best-fit value) / logEC50 (best-fit value) / EC50: FIG. 13A", "protocol": "(§1) Fluorescence assay using flow cytometry analysis. Cells were treated with 0.05% Trpsin EDTA (Thermo Fisher Scientific no. 25300054) or TrypLE (Thermo Fisher Scientific no. 12605028) after transfection and centrifuged at 3000 g for 5 min. Supernatant was removed and the cell pellet was resuspended with 200 μL phosphate buffered saline (PBS) without calcium and magnesium (Thermo Fisher Scientific no. 10010023). Cells were transferred into 12×75 mm flow tubes (Global Scientific no. 110410). Cells were analyzed by MA900 flow cytometry (SONY). 405 nm laser (FL6 filter) was used for testing the BFP channel. 488 nm (FL1 filter) was used for testing the EYFP and GFP channel. Automated alignment using Automatic Setup Beads kit (SONY no. LE-B3001) is performed before running samples. In FIGS. 3A, 3B, and 17, experiments were performed under 2% FSC, 17% BSC, 24% FL1. In FIG. 18, experiments were performed under 2% FSC, 17% BSC, 27% FL1. All the other experiments were performed under 2% FSC, 17% BSC, 24% FL1 and 27% FL6. Flow cytometry data was processed and analyzed by FlowJo 10. Events were first gated with forward scatter-Area (FSC-A) and side scatter-Area (SSC-A) to select viable cells and remove the debris and dead cells. Cells were further gated with FSC-A and FSC-Height (FSC-H) for selecting single cells. The mean intensity of the reporter fluorescent protein (BFP and EYFP) in viable and single cell populations were calculated by FlowJo 10 as the mean of FL6-A and FL1-A. When calculating the fold change of relative fluorescence units (RFU), the relative fluorescence units of EYFP was calculated by dividing the mean of fluorescence intensity of EYFP with the mean of BFP fluorescence intensity for normalization as the following formula: […]\nNext, the mean of the normalized relative fluorescence units of induced group were divided by the value of control group for calculating the fold change as the following formula: […]\nTransfection and microscopy. HEK293T cells (American Type Culture Collection, no. CRL-3216) were cultured with high-glucose Dulbecco's modified Eagle's medium (DMEM) (Thermo Fisher Scientific no. 10569044) with 10% fetal bovine serum (FBS) (Thermo Fisher Scientific no. 10437028) and 1×penicillin-streptomycin (Thermo Fisher Scientific no. 15140122) at 37° C. with 5% CO2. Except for the data in FIGS. 3C, 3E, and 3H, cells were plated into 96 well plate (Corning no. 3598) and transfected by Polyethyleneimine Max (PEI Max) (Polysciences no. 24765-1). 1.5 μL PEI Max (1 mg/mL, pH=7.1) and 100 μl DMEM were mixed with plasmids to be slowly dropped into the cell medium after 30 mins of incubation. Medium was changed 12 hours post-transfection. The inductive small molecules, including Rapamycin (STEM CELL technologies no. 73362), dTAG-13 (TOCRIS no. 6605/5), dTAG^V-1 (TOCRIS no. 6744-5), dBRD9 (TOCRIS no. 6606/5), dTRIM24 (TOCRIS no. 6607/5), MZ1 (TOCRIS no. 6154/5), AT1 (TOCRIS no. 6356/5), TL13-12 (TOCRIS no. 6744/5), TL13-112 (TOCRIS no. 6745/5), dTAG-7 (TOCRIS no. 69125), ZXH3-26 (TOCRIS no. 6713/5) and ABA (GoldBio no. A-050-100), dissolved in Dimethyl sulfoxide (DMSO) (Sigma, no. D8418) were added. For the microscopy observation, the images were taken by Microscopy EVOS (Life Technologies) and processed by ImageJ (Schneider et al., 2012). If not otherwise noted, 60 ng of each plasmid were used for each sample.\nStep-by-step fluorescence protein activation assay protocol. Reagents: • 1. PEI Max (Polysciences no. 24765-1) • 2. DMEM, high glucose, GlutaMAX™ Supplement, pyruvate (Thermo Fisher Scientific no. 10569044) • 3. Penicillin-Streptomycin (10,000 U/mL) (Thermo Fisher Scientific no. 15140122) • 4. Fetal Bovine Serum 500ML (FBS) (Thermo Fisher Scientific no. 10437028) • 5. TrypLE™ Express Enzyme (1×), phenol red (Thermo Fisher Scientific no. 12605068) • 6. PBS pH=7.4 (Thermo Fisher Scientific no. 10010023) • 7. Sony sorting chip […] for MA900 (SONY no. LE-C3210) • 8. Automatic Setup Beads kit (SONY no. LE-B3001) • 9. […]"}, "[2]": {"test_system": "luciferase expression in the liver of FVB mice injected with Virus a and Virus b", "assay": "In vivo PROTAC-CID gene activation via AAV, IVIS bioluminescence imaging", "protocol": "AAV production and Mouse for in vivo delivery. […] FVB mice were purchased from the Jackson Laboratory.\nIVIS imaging system and quantification. Luciferase […] intensity was measured by the IVIS imaging system (PerkinElmer). Mice were anesthetized with a mixture of isoflurane and oxygen. and then intraperitoneally (i.p.) injected with D-luciferin (15 mg/ml, GoldBio no. LUCNA-100). 5 mins after the D-luciferin injection, mice were imaged with IVIS imaging system. Quantitative analysis of imaging signals (luminescence counts) was processed by Living Imaging software (PerkinElmer)."}, "[3]": {"test_system": "Cre-mediated GFP expression in HEK293T cells", "assay": "Inducible Cre site-specific DNA recombination, LoxP-STOP-LoxP-GFP reporter", "assay_type": "cell-based, human", "protocol": "as §1\nTransfection and microscopy. […]"}, "[4]": {"details": "Table 4 nonlinear regression, Prism 9 [Agonist] vs. response variable slope (four parameters), no unit in table (the source gives nM), read-out: EC50 (best-fit value)"}, "[5]": {"details": "dose-response, read-out: EC50 for gene activation"}}, "note": "Read-outs that look alike come from different tables or passages of the source.", "data": [{"smiles": "Cc1ncsc1-c1ccc(CNC(=O)[C@@H]2C[C@@H](O)CN2C(=O)[C@@H](NC(=O)COCCOCCOCCNC(=O)C[C@@H]2N=C(c3ccc(Cl)cc3)c3c(sc(C)c3C)-n3c(C)nnc32)C(C)(C)C)cc1", "note": "[MZ1]", "values": [{"measurement": "grades of EYFP intensity", "setting": "[1]; HEK293T transfected with GAL4-VHL, TRIM24^BD-VPR, BRD4^BD2-VPR and reporter plasmid, FIG. 2E: dTRIM24, MZ1 100 nM", "value": 13, "unit": "fold"}, {"measurement": "Bottom (best-fit value)", "setting": "[1]", "value": 1.416}, {"measurement": "Span (best-fit value)", "setting": "[1]", "value": 319.6}, {"measurement": "Top (best-fit value)", "setting": "[1]", "value": 321}, {"measurement": "Hillslope (best-fit value)", "setting": "[1]; Table 4 nonlinear regression", "value": 1.728}, {"measurement": "logEC50 (best-fit value)", "setting": "[1]; Table 4 nonlinear regression", "value": 1.51}, {"measurement": "EC50", "setting": "[1]; [4]", "value": 32.4, "unit": "nM"}, {"measurement": "EC50", "setting": "[1]; [5]", "value": 32, "unit": "nM"}, {"measurement": "increase of the luciferase expression in the liver compared with the group without MZ1", "setting": "[2]; 10 mg/kg MZ1 intraperitoneally, 25 days after AAV, imaging 6 h post-MZ1, FIG. 4E", "value": "~7", "unit": "fold"}, {"measurement": "Fluc expression after second MZ1 injection", "setting": "[2]; second injection ten days after the first, 50 mg/kg i.p., FIGS. 4G and 4H", "value": "elevated expression of Fluc with a comparable gene activation level as the first administration"}]}, {"smiles": "CC[C@H](C(=O)N1CCCC[C@H]1C(=O)O[C@H](CCc1ccc(OC)c(OC)c1)c1ccccc1OCC(=O)NCCCCCCOc1cccc2c1C(=O)N(C1CCC(=O)NC1=O)C2=O)c1cc(OC)c(OC)c(OC)c1", "note": "(stereo partly shown) [dTAG-13]", "values": [{"measurement": "Bottom (best-fit value)", "setting": "[1]", "value": 2.581}, {"measurement": "Span (best-fit value)", "setting": "[1]", "value": 135.7}, {"measurement": "Top (best-fit value)", "setting": "[1]", "value": 138.3}, {"measurement": "Hillslope (best-fit value)", "setting": "[1]; Table 4 nonlinear regression", "value": 3.384}, {"measurement": "logEC50 (best-fit value)", "setting": "[1]; Table 4 nonlinear regression", "value": 1.724}, {"measurement": "EC50", "setting": "[1]; [4]", "value": 53, "unit": "nM"}, {"measurement": "EC50", "setting": "[1]; [5]", "value": 53, "unit": "nM"}, {"measurement": "GFP signal, two-layer genetic circuit driving Cre", "setting": "[3]; 100 nM dTAG-13 or 1 μM dBRD9, 2 days, FIGS. 3A and 17", "value": "strong GFP signal"}, {"measurement": "GFP expression, three-layer circuit (Dre, Rox-STOP-Rox-Cre)", "setting": "[3]; FIG. 3B", "value": "robust GFP expression only in the presence of dTAG-13"}]}]}
